Data reported in patent US9737542B2, “Pyrrolotriazine kinase inhibitors” (BRISTOL-MYERS SQUIBB COMPANY, priority 2013, dated 2017).
pIC50: −log10 of the molar value.

target: GST-Xa-hAAK1 (Homo sapiens (Human), UniProt Q2M2I8); assay: AAK1 Kinase Assay; format: biochemical; conditions: ATP 22 μM; 3 hours at room temperature
Sequence (Q2M2I8 whole entry): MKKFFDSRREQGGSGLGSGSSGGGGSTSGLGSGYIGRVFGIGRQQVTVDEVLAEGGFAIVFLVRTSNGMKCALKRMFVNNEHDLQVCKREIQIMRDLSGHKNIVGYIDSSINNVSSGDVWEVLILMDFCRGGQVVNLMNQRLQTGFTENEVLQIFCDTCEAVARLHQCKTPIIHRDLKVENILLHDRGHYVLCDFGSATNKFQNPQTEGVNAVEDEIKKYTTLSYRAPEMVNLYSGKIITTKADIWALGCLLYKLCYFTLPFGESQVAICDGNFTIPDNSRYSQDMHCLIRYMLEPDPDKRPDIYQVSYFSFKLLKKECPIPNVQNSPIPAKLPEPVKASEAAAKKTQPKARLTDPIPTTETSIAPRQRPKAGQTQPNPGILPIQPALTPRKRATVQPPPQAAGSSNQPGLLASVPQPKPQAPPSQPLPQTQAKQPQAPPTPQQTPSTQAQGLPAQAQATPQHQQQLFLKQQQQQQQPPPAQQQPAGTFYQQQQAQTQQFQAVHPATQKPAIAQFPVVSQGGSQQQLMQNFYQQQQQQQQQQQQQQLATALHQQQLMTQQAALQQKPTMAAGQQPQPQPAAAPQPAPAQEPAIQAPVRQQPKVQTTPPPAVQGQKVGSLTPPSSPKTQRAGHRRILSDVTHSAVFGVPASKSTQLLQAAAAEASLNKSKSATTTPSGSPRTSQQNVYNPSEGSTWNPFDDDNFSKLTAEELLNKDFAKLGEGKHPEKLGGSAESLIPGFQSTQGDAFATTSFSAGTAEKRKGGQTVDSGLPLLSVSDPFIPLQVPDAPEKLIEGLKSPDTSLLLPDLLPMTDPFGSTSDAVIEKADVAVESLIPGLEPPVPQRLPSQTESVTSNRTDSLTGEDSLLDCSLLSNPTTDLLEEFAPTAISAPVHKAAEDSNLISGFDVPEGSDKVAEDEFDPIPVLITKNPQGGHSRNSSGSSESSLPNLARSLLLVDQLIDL
Procedure: The assays were performed in U-bottom 384-well plates. […] The reactions were initiated by the combination of bacterially expressed, GST-Xa-hAAK1 with substrates and test compounds. The reactions were incubated at room temperature for 3 hours and terminated by adding 60 μl of 35 mM EDTA buffer to each sample. The reactions were analyzed on the Caliper LabChip 3000 (Caliper, Hopkinton, Mass.) by electrophoretic separation of the fluorescent substrate and phosphorylated product. Inhibition data were calculated by comparison to EDTA quenched control reactions for 100% inhibition and vehicle-only reactions for 0% inhibition. […] Dose response curves were generated to determine the concentration required inhibiting 50% of kinase activity (IC50). Compounds were dissolved at 10 mM in dimethylsulfoxide (DMSO) and evaluated at eleven concentrations. IC50 values were derived by non-linear regression analysis.

| Compound | pIC50 |
| --- | --- |
| NC1CCN(Cc2ccn3ncnc(Nc4cccc(-c5noc(C6CCCC6)n5)c4)c23)CC1 [Example 73, 5-((4-aminopiperidin-1-yl)methyl)-N-(3-(5-cyclopentyl-1,2,4-oxadiazol-3-yl)phenyl)pyrrolo[2,1-f][1,2,4]triazin-4-amine] | 7.80 |
| CC(C)c1nc(-c2cccc(Nc3ncnn4cccc34)c2)no1 [Example 77, N-(3-(5-isopropyl-1,2,4-oxadiazol-3-yl)phenyl)pyrrolo[2,1-f][1,2,4]triazin-4-amine] | 6.54 |
| CC(C)(CCl)c1nc(-c2cccc(Nc3ncnn4cccc34)c2)no1 [Example 78, N-(3-(5-(1-chloro-2-methylpropan-2-yl)-1,2,4-oxadiazol-3-yl)phenyl)pyrrolo[2,1-f][1,2,4]triazin-4-amine] | 6.95 |
| CC(C)(CN)c1nc(-c2cccc(Nc3ncnn4cccc34)c2)no1 [Example 82, N-(3-(5-(1-amino-2-methylpropan-2-yl)-1,2,4-oxadiazol-3-yl)phenyl)pyrrolo[2,1-f][1,2,4]triazin-4-amine] | 7.17 |
| CC(C)n1nnc(-c2cc(CO)cc(Nc3ncnn4cccc34)c2)n1 [Example 83, (3-(2-isopropyl-2H-tetrazol-5-yl)-5-(pyrrolo[2,1-f][1,2,4]triazin-4-ylamino)phenyl)methanol] | 6.39 |
| CC(C)n1nnc(-c2cc(O)cc(Nc3ncnn4cccc34)c2)n1 [Example 84, 3-(2-isopropyl-2H-tetrazol-5-yl)-5-(pyrrolo[2,1-f][1,2,4]triazin-4-ylamino)phenol] | 7.12 |
| Cc1ccn2ncnc(Nc3cccc(-c4nnc(C(C)C)s4)c3)c12 [Example 87, N-(3-(5-isopropyl-1,3,4-thiadiazol-2-yl)phenyl)-5-methylpyrrolo[2,1-f][1,2,4]triazin-4-amine] | 6.49 |
| Cc1ccn2ncnc(Nc3cccc(-c4noc(C(C)(C)CCl)n4)c3)c12 [Example 90, N-(3-(5-(1-chloro-2-methylpropan-2-yl)-1,2,4-oxadiazol-3-yl)phenyl)-5-methylpyrrolo[2,1-f][1,2,4]triazin-4-amine] | 7.28 |
| Cc1ccn2ncnc(Nc3cccc(-c4noc(C(C)(C)CN)n4)c3)c12 [Example 91, N-(3-(5-(1-amino-2-methylpropan-2-yl)-1,2,4-oxadiazol-3-yl)phenyl)-5-methylpyrrolo[2,1-f][1,2,4]triazin-4-amine] | 7.20 |
| COc1cc(Nc2ncnn3ccc(C)c23)cc(-c2noc(C(C)C)n2)c1 [Example 92, N-(3-(5-isopropyl-1,2,4-oxadiazol-3-yl)-5-methoxyphenyl)-5-methylpyrrolo[2,1-f][1,2,4]triazin-4-amine] | 5.93 |
| CCOC(=O)c1ccn2ncnc(Nc3cc(O)cc(-c4nnn(C(C)C)n4)c3)c12 [Example 95, ethyl 4-((3-hydroxy-5-(2-isopropyl-2H-tetrazol-5-yl)phenyl)amino)pyrrolo[2,1-f][1,2,4]triazine-5-carboxylate] | 5.60 |
| CCOC(=O)c1ccn2ncnc(Nc3cccc(-c4nnn(C(C)C)n4)c3)c12 [Example 96, ethyl 4-((3-(2-isopropyl-2H-tetrazol-5-yl)phenyl)amino)pyrrolo[2,1-f][1,2,4]triazine-5-carboxylate] | 6.20 |
| CCOC(=O)c1ccn2ncnc(Nc3cccc(-c4noc(C(C)C)n4)c3)c12 [Example 97, ethyl 4-((3-(5-isopropyl-1,2,4-oxadiazol-3-yl)phenyl)amino)pyrrolo[2,1-f][1,2,4]triazine-5-carboxylate] | 6.05 |
| CC(C)n1nnc(-c2cccc(Nc3ncnn4ccc(CN)c34)c2)n1 [Example 99, 5-(aminomethyl)-N-(3-(2-isopropyl-2H-tetrazol-5-yl)phenyl)pyrrolo[2,1-f][1,2,4]triazin-4-amine] | 6.66 |
| CC(C)n1nnc(-c2cccc(Nc3ncnn4ccc(CN(C)C)c34)c2)n1 [Example 102, 5-((dimethylamino)methyl)-N-(3-(2-isopropyl-2H-tetrazol-5-yl)phenyl)pyrrolo[2,1-f][1,2,4]triazin-4-amine] | 7.31 |
| CNC(=O)c1ccn2ncnc(Nc3cccc(-c4nnn(C(C)C)n4)c3)c12 [Example 103, 4-((3-(2-isopropyl-2H-tetrazol-5-yl)phenyl)amino)-N-methylpyrrolo[2,1-f][1,2,4]triazine-5-carboxamide] | 7.59 |
| CCNC(=O)c1ccn2ncnc(Nc3cccc(-c4nnn(C(C)C)n4)c3)c12 [Example 104, N-ethyl-4-((3-(2-isopropyl-2H-tetrazol-5-yl)phenyl)amino)pyrrolo[2,1-f][1,2,4]triazine-5-carboxamide] | 6.71 |

Next, values leading:

| pIC50 | Compound |
| --- | --- |
| 6.66 | CC(C)n1nnc(-c2cccc(Nc3ncnn4cccc34)c2)n1 [Example 76, N-(3-(2-isopropyl-2H-tetrazol-5-yl)phenyl)pyrrolo[2,1-f][1,2,4]triazin-4-amine] |
| 6.57 | CC(C)c1nnc(-c2cccc(Nc3ncnn4cccc34)c2)s1 [Example 79, N-(3-(5-isopropyl-1,3,4-thiadiazol-2-yl)phenyl)pyrrolo[2,1-f][1,2,4]triazin-4-amine] |
| 6.42 | CC(C)c1nnc(-c2cccc(Nc3ncnn4cccc34)c2)o1 [Example 80, N-(3-(5-isopropyl-1,3,4-oxadiazol-2-yl)phenyl)pyrrolo[2,1-f][1,2,4]triazin-4-amine] |
| 6.38 | CC(C)(CO)c1nc(-c2cccc(Nc3ncnn4cccc34)c2)no1 [Example 81, 2-methyl-2-(3-(3-(pyrrolo[2,1-f][1,2,4]triazin-4-ylamino)phenyl)-1,2,4-oxadiazol-5-yl)propan-1-ol] |
| 7.09 | CC(C)c1nc(-c2cc(O)cc(Nc3ncnn4cccc34)c2)no1 [Example 85, 3-(5-isopropyl-1,2,4-oxadiazol-3-yl)-5-(pyrrolo[2,1-f][1,2,4]triazin-4-ylamino)phenol] |
| 6.91 | Cc1ccn2ncnc(Nc3cccc(-c4noc(C(C)C)n4)c3)c12 [Example 86] |
| 7.66 | Cc1ccn2ncnc(Nc3cccc(-c4nnn(C(C)C)n4)c3)c12 [Example 88, N-(3-(2-isopropyl-2H-tetrazol-5-yl)phenyl)-5-methylpyrrolo[2,1-f][1,2,4]triazin-4-amine] |
| 6.68 | Cc1ccn2ncnc(Nc3cccc(-c4noc(C(C)(C)CO)n4)c3)c12 [Example 89, 2-methyl-2-(3-(3-(5-methylpyrrolo[1,2-f][1,2,4]triazin-4-ylamino)phenyl)-1,2,4-oxadiazol-5-yl)propan-1-ol] |
| 7.14 | Cc1ccn2ncnc(Nc3cc(O)cc(-c4noc(C(C)C)n4)c3)c12 [Example 93, 3-(5-isopropyl-1,2,4-oxadiazol-3-yl)-5-((5-methylpyrrolo[2,1-f][1,2,4]triazin-4-yl)amino)phenol] |
| 6.32 | CCOC(=O)c1ccn2ncnc(Nc3cccc(-c4nnc(C(C)C)s4)c3)c12 [Example 94, ethyl 4-((3-(5-isopropyl-1,3,4-thiadiazol-2-yl)phenyl)amino)pyrrolo[2,1-f][1,2,4]triazine-5-carboxylate] |
| 7.04 | CC(C)n1nnc(-c2cccc(Nc3ncnn4ccc(CO)c34)c2)n1 [Example 98, (4-((3-(2-isopropyl-2H-tetrazol-5-yl)phenyl)amino)pyrrolo[2,1-f][1,2,4]triazin-5-yl)methanol] |
| 7.27 | COCc1ccn2ncnc(Nc3cccc(-c4nnn(C(C)C)n4)c3)c12 [Example 100, N-(3-(2-isopropyl-2H-tetrazol-5-yl)phenyl)-5-(methoxymethyl)pyrrolo[2,1-f][1,2,4]triazin-4-amine] |
| 6.16 | CC(C)n1nnc(-c2cccc(Nc3ncnn4ccc(C(=O)N(C)C)c34)c2)n1 [Example 101, 4-((3-(2-isopropyl-2H-tetrazol-5-yl)phenyl)amino)-N,N-dimethylpyrrolo[2,1-f][1,2,4]triazine-5-carboxamide] |

same assay, conditions: ATP 22 μM; 3 hours at room temperature; listed as IC50 ranges

| Compound | pIC50 |
| --- | --- |
| CC(C)C[C@@H](N)C(=O)Nc1cccc(Nc2ncnn3ccc(CN4CCC(N)CC4)c23)c1 [Example 67, (R)-2-amino-N-(3-((5-((4-aminopiperidin-1-yl)methyl)pyrrolo[2,1-f][1,2,4]triazin-4-yl)amino)phenyl)-4-methylpentanamide] | 6.00 to 7.00 |
| CC(C)c1nnc(-c2cccc(Nc3ncnn4ccc(CNCCCN)c34)c2)s1 [Example 69, N1-((4-((3-(5-isopropyl-1,3,4-thiadiazol-2-yl)phenyl)amino)pyrrolo[2,1-f][1,2,4]triazin-5-yl)methyl)propane-1,3-diamine] | 6.00 to 7.00 |
| CC(C)c1nnc(-c2cccc(Nc3ncnn4ccc(CN5CCCC(CN)C5)c34)c2)s1 (centres unmarked) [Example 71, 5-((3-(aminomethyl)piperidin-1-yl)methyl)-N-(3-(5-isopropyl-1,3,4-thiadiazol-2-yl)phenyl)pyrrolo[2,1-f][1,2,4]triazin-4-amine] | 5.30 to 6.00 |
| CC(C)n1nnc(-c2cc(Nc3ncnn4ccc(CN5CCC(N)CC5)c34)c3[nH]ccc3c2)n1 [Example 74, 5-((4-aminopiperidin-1-yl)methyl)-N-(5-(2-isopropyl-2H-tetrazol-5-yl)-1H-indol-7-yl)pyrrolo[2,1-f][1,2,4]triazin-4-amine] | 7.00 to 8.00 |

The remaining lines, values ahead:

| pIC50 | Compound |
| --- | --- |
| 5.30 to 6.00 | NC1CCN(Cc2cc(Br)n3ncnc(Nc4cccc(-c5cnco5)c4)c23)CC1 [Example 68, 5-((4-aminopiperidin-1-yl)methyl)-7-bromo-N-(3-(oxazol-5-yl)phenyl)pyrrolo[2,1-f][1,2,4]triazin-4-amine] |
| 6.00 to 7.00 | CC(CN)CNCc1ccn2ncnc(Nc3cccc(-c4nnc(C(C)C)s4)c3)c12 (centres unmarked) [Example 70, N1-((4-((3-(5-isopropyl-1,3,4-thiadiazol-2-yl)phenyl)amino)pyrrolo[2,1-f][1,2,4]triazin-5-yl)methyl)-2-methylpropane-1,3-diamine] |
| 7.00 to 8.00 | CC(C)n1nnc(-c2cc(Nc3ncnn4ccc(CN5CCC(N)CC5)c34)cc(C(F)F)c2)n1 [Example 72, 5-((4-aminopiperidin-1-yl)methyl)-N-(3-(difluoromethyl)-5-(2-isopropyl-2H-tetrazol-5-yl)phenyl)pyrrolo[2,1-f][1,2,4]triazin-4-amine] |
| 6.00 to 7.00 | CC(C)n1nnc(-c2cc(Nc3ncnn4ccc(CN5CCC(N)CC5)c34)cc3[nH]cnc23)n1 [Example 75, 5-((4-aminopiperidin-1-yl)methyl)-N-(4-(2-isopropyl-2H-tetrazol-5-yl)-1H-benzo[d]imidazol-6-yl)pyrrolo[2,1-f][1,2,4]triazin-4-amine] |
